Measured values: the supplement of paper PMC11061612

Experiments:
Test in all cases: combination Emax (second highest fraction inhibited in the dose matrix, 72 h); higher = more inhibition; extreme values may be limits of the assay
[1] = system: DoTc2-4510 (Cervical Carcinoma)
Method in brief: (§1)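 After 24 hours at 37°C and 5% CO2 in 1536-well plates, cells in DMEM/F12 or RPMI plus 10% FBS received two-drug dose matrices for 72 hours. Viability came from CellTiter-Glo 2.0 luminescence and was scaled as inhibition, anchored at 0 by vehicle wells and at 1 by blank wells. Combination Emax is taken as the second-highest inhibition in the matrix, and Bliss excess as the observed combination effect less EA + EB − EA·EB, with EA and EB the single-agent effects.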

[2] = system: AGS (Gastric Carcinoma)
Method in brief: as §1

[3] = system: TCCSUP (Bladder Carcinoma)
Method in brief: as §1

[4] = system: LB831-BLC (Bladder Carcinoma)
Method in brief: as §1

[5] = system: NOS-1 (Osteosarcoma)
Method in brief: as §1

[6] = system: HOS (Osteosarcoma)
Method in brief: as §1

[7] = system: Hs-578-T (Breast Carcinoma)
Method in brief: as §1

[8] = system: COLO-205 (Colorectal Carcinoma)
Method in brief: as §1

[9] = system: TE-15 (Esophageal Squamous Cell Carcinoma)
Method in brief: as §1

[10] = system: LU-135 (Small Cell Lung Carcinoma)
Method in brief: as §1

[11] = system: CCRF-CEM (T-Lymphoblastic Leukemia)
Method in brief: as §1

[12] = system: HuP-T4 (Pancreatic Carcinoma)
Method in brief: as §1

[13] = system: SNU-5 (Gastric Carcinoma)
Method in brief: as §1

[14] = system: ES4 (Ewing's Sarcoma)
Method in brief: as §1

[15] = system: KYSE-520 (Esophageal Squamous Cell Carcinoma)
Method in brief: as §1

[16] = system: 42-MG-BA (Glioblastoma)
Method in brief: as §1

[17] = system: Ramos-2G6-4C10 (Burkitt's Lymphoma)
Method in brief: as §1

[18] = system: LS-180 (Colorectal Carcinoma)
Method in brief: as §1

[19] = system: HT-1376 (Bladder Carcinoma)
Method in brief: as §1

[20] = system: CAL-148 (Breast Carcinoma)
Method in brief: as §1

Compound | combination Emax [1] | combination Emax [2] | combination Emax [3] | combination Emax [4] | combination Emax [5] | combination Emax [6] | combination Emax [7] | combination Emax [8] | combination Emax [9] | combination Emax [10] | combination Emax [11] | combination Emax [12] | combination Emax [13] | combination Emax [14] | combination Emax [15] | combination Emax [16] | combination Emax [17] | combination Emax [18] | combination Emax [19] | combination Emax [20]
Cc1c2c(nn1C)CSCc1cc(n(C)n1)CSc1cc(c3ccccc3c1)OCCCc1c(C(=O)O)n(C)c3c-2c(Cl)ccc13 [AZD5991] + C1CN(CCC1(C(=O)N[C@@H](CCO)C2=CC=C(C=C2)Cl)N)C3=NC=NC4=C3C=CN4 [Capivasertib] (first compound max 1 µM, 7x7, partner max 3 µM) | 0.355 | 0.335 | 0.25 | 0.352 | 0.79 | 0.242 | 0.747 | 0.313 | 0.36 | 0.323 | 0.637 | 0.351 | 0.288 | 0.19 | 0.433 | 1 | 1 | 0.315 | 0.146 | 1
Cc1c2c(nn1C)CSCc1cc(n(C)n1)CSc1cc(c3ccccc3c1)OCCCc1c(C(=O)O)n(C)c3c-2c(Cl)ccc13 [AZD5991] + CC1(C)CCC(CN2CCN(c3ccc(C(=O)NS(=O)(=O)c4ccc(NCC5CCOCC5)c([N+](=O)[O-])c4)c(Oc4cnc5[nH]ccc5c4)c3)CC2)=C(c2ccc(Cl)cc2)C1 [Venetoclax] (first compound max 1 µM, 7x7, partner max 1 µM) | 0.287 | 0.665 | 0.157 | 0.439 | 0.889 | 0.509 | 0.774 | 0.135 | 0.173 | 0.478 | 0.787 | 0.409 | 0.147 | 0.147 | 0.183 | 0.963 | 0.985 | 0.191 | 0.142 | 0.411
Cc1c2c(nn1C)CSCc1cc(n(C)n1)CSc1cc(c3ccccc3c1)OCCCc1c(C(=O)O)n(C)c3c-2c(Cl)ccc13 [AZD5991] + CCN(CCO)CCCOc1ccc2c(Nc3cc(CC(=O)Nc4cccc(F)c4)[nH]n3)ncnc2c1 [AZD2811] (first compound max 1 µM, 7x7, partner max 1 µM) | 0.287 | 0.51 | 0.321 | 0.444 | 0.809 | 0.238 | 0.81 | 0.948 | 0.826 | 0.906 | 0.999 | 0.624 | 0.204 | 0.219 | 0.283 | 1 | 1 | 0.342 | 0.243 | 1
Cc1c2c(nn1C)CSCc1cc(n(C)n1)CSc1cc(c3ccccc3c1)OCCCc1c(C(=O)O)n(C)c3c-2c(Cl)ccc13 [AZD5991] + CN(C)CCCOc1ccc(-c2ccc3ncc4c(c3c2)n(C2CCOCC2)c(=O)n4C)cn1 [AZD0156] (first compound max 1 µM, 7x7, partner max 1 µM) | 0.326 | 0.255 | 0.162 | 0.229 | 0.753 | 0.278 | 0.585 | 0.725 | 0.188 | 0.286 | 0.48 | 0.779 | 0.255 | 0.238 | 0.23 | 0.986 | 0.988 | 0.196 | 0.196 | 0.417
Cc1c2c(nn1C)CSCc1cc(n(C)n1)CSc1cc(c3ccccc3c1)OCCCc1c(C(=O)O)n(C)c3c-2c(Cl)ccc13 [AZD5991] + C[C@@H]1COCCN1C2=NC(=NC(=C2)C3(CC3)[S@](=N)(=O)C)C4=C5C=CNC5=NC=C4 [AZD6738] (first compound max 1 µM, 7x7, partner max 10 µM) | 0.677 | 0.821 | 0.648 | 0.439 | 1 | 0.789 | 0.891 | 0.511 | 0.736 | 0.736 | 1 | 0.51 | 0.942 | 0.885 | 0.583 | 1 | 1 | 0.707 | 0.455 | 0.942
Cc1c2c(nn1C)CSCc1cc(n(C)n1)CSc1cc(c3ccccc3c1)OCCCc1c(C(=O)O)n(C)c3c-2c(Cl)ccc13 [AZD5991] + Cc1cc2ncnn2cc1Nc1ncc2c(n1)n(C1CCOCC1)c(=O)n2C [AZD7648] (first compound max 1 µM, 7x7, partner max 10 µM) | 0.244 | 0.233 | 0.25 | 0.251 | 0.895 | 0.287 | 0.63 | 0.298 | 0.235 | 0.279 | 0.52 | 0.325 | 0.347 | 0.229 | 0.365 | 0.988 | 1 | 0.256 | 0.221 | 0.45
Cc1cc2ncnn2cc1Nc1ncc2c(n1)n(C1CCOCC1)c(=O)n2C [AZD7648] + C=CCn1c(=O)c2cnc(Nc3ccc(N4CCN(C)CC4)cc3)nc2n1-c1cccc(C(C)(C)O)n1 [AZD1775] (first compound max 10 µM, partner max 1 µM) | 0.531 | 0.736 | 0.375 | 0.455 | 0.432 | 0.369 | 0.77 | 0.678 | 0.565 | 0.56 | 1 | 0.288 | 0.558 | 0.441 | 0.4 | 0.439 | 0.998 | 0.5 | 0.408 | 0.928
Cc1cc2ncnn2cc1Nc1ncc2c(n1)n(C1CCOCC1)c(=O)n2C [AZD7648] + CCN(CCO)CCCOc1ccc2c(Nc3cc(CC(=O)Nc4cccc(F)c4)[nH]n3)ncnc2c1 [AZD2811] (first compound max 10 µM, 7x7, partner max 1 µM) | 0.301 | 0.529 | 0.387 | 0.258 | 0.232 | 0.273 | 0.623 | 0.897 | 0.283 | 0.893 | 1 | 0.342 | 0.354 | 0.279 | 0.337 | 0.472 | 0.789 | 0.388 | 0.235 | 0.911
Cc1cc2ncnn2cc1Nc1ncc2c(n1)n(C1CCOCC1)c(=O)n2C [AZD7648] + CN(C)CCCOc1ccc(-c2ccc3ncc4c(c3c2)n(C2CCOCC2)c(=O)n4C)cn1 [AZD0156] (first compound max 10 µM, 7x7, partner max 1 µM) | 0.26 | 0.397 | 0.197 | 0.243 | 0.225 | 0.273 | 0.513 | 0.39 | 0.236 | 0.172 | 0.521 | 0.261 | 0.376 | 0.0963 | 0.305 | 0.398 | 0.292 | 0.358 | 0.2 | 0.424
Cc1cc2ncnn2cc1Nc1ncc2c(n1)n(C1CCOCC1)c(=O)n2C [AZD7648] + C[C@@H]1COCCN1C2=NC(=NC(=C2)C3(CC3)[S@](=N)(=O)C)C4=C5C=CNC5=NC=C4 [AZD6738] (first compound max 10 µM, 7x7, partner max 10 µM) | 0.746 | 0.682 | 0.569 | 0.3 | 0.351 | 0.691 | 0.912 | 0.266 | 0.713 | 0.552 | 0.997 | 0.358 | 0.931 | 0.686 | 0.538 | 0.692 | 0.944 | 0.754 | 0.546 | 0.828
Cc1cc2ncnn2cc1Nc1ncc2c(n1)n(C1CCOCC1)c(=O)n2C [AZD7648] + O=C(c1cc(Cc2n[nH]c(=O)c3ccccc23)ccc1F)N1CCN(C(=O)C2CC2)CC1 [Olaparib] (first compound max 10 µM, 7x7, partner max 10 µM) | 0.277 | 0.204 | 0.134 | 0.253 | 0.0915 | 0.195 | 0.507 | 0.0328 | 0.182 | 0.394 | 0.454 | 0.141 | 0.374 | 0.572 | 0.234 | 0.464 | 0.169 | 0.338 | 0.0682 | 0.255
NC1(C(=O)N[C@@H](CCO)c2ccc(Cl)cc2)CCN(c2ncnc3[nH]ccc23)CC1 [Capivasertib] + CC(=O)c1c(C)c2cnc(Nc3ccc(N4CCNCC4)cn3)nc2n(C2CCCC2)c1=O [Palbociclib] (first compound max 10 µM, 7x7, partner max 10 µM) | 0.181 | 0.697 | 0.317 | 0.453 | 0.607 | 0.504 | 0.676 | 0.587 | 0.568 | 0.452 | 0.798 | 0.305 | 0.379 | 0.412 | 0.638 | 0.639 | 0.42 | 0.61 | 0.144 | 0.964
NC1(C(=O)N[C@@H](CCO)c2ccc(Cl)cc2)CCN(c2ncnc3[nH]ccc23)CC1 [Capivasertib] + CC(C)n1c(=O)n(C)c2cnc3cc(F)c(-c4ccc(OCCCN5CCCCC5)nc4)cc3c21 [AZD1390] (first compound max 10 µM, 7x7, partner max 0.3 µM) | 0.234 | 0.444 | 0.321 | 0.493 | 0.322 | 0.41 | 0.682 | 0.416 | 0.387 | 0.267 | 0.457 | 0.128 | 0.43 | 0.277 | 0.467 | 0.686 | 0.447 | 0.33 | 0.144 | 0.971
